The subject of this test is Amycolatopsis orientalis IFO 12806. Description: Induction of D-aminoacylase production by inducers in culture. In kind it is cell-based. How it is done: This microbial strain was cultured in ISP-2 liquid medium as used in Example 1 supplemented with or without N-acetyl-DL-methionine or DL-valine (Kanto Kagaku) (0.1% each) as the enzyme inducer with shaking at 160 rpm at 30° C. for 72 h.
After the incubation, the culture was centrifuged at 8000 rpm (7000×g) for 20 min with a Hitachi Koki refrigerated centrifuge to collect microbial cells. The cells were washed with 50 mM Tris-HCl buffer (pH 7.5) and then centrifuged again with the same centrifuge to harvest the cells to be used in the following processes. The cells were stored at -20° C.
The stored cells were suspended in 20 ml of 50 mM Tris-HCl (pH 7.5), ultrasonicated at 190 W for 10 min, and centrifuged with a Hitachi Koki refrigerated centrifuge at 14,000 rpm (20,000×g) for 20 min. The supernatant thus obtained was used as the crude enzyme solution.
The enzymatic reaction was performed in a total volume of 1.0 ml of a reaction system containing 20 mM N-acetyl-D-methionine, 50 mM Tris-HCl buffer (pH 7.5), 1 mM CoCl2, and 100 μl of the enzyme solution at 30° C. for 10 min. The reaction was terminated by adding a TCA reaction terminating solution.

Where [1] appears, read: crude enzyme solution of cells cultured with 0.1% inducer in ISP-2 medium, 30° C., 72 h.

Consider `CC(C)C(N)C(=O)O` (racemic) [DL-valine], for which the “Induction of D-aminoacylase” value (DL-valine compared with N-acetyl-DL-methionine as inducer) is listed as “induced more strongly”. Under setting [1], this compound came in with a Specific activity of 144.0 mU/mg and a Total activity of 36.0 U. Further, where the note is “crude enzyme solution of cells cultured with 0.1% inducer in ISP-2 medium, 30° C., 72 h, 20 mM N-acetyl-D-methionine, pH 7.5, 10 min”, the Activity turned out to be 3.9 U/ml.
